We go through seven compounds from patent publication US9758526B2, “Quinoline-substituted compound” (TAIHO PHARMACEUTICAL CO., LTD., priority 2013, dated 2017).

The target in test [1] is T1, EGFR (d746-750/T790M) (Homo sapiens, UniProt P00533, DEL746-750/T790M).
T1 construct: purchased Carna Biosciences, Inc
The experiment in a line: EGFR (d746-750/T790M) kinase inhibitory activity. Format: biochemical. As to conditions: ATP 1.5 μM. As for the experimental part:
(§1) Among the materials of the inhibitory activity measurement, the substrate peptide and the kinase protein were obtained as follows. A peptide with biotinylated N-terminus (biotin-EEPLYWSFPAKKK) was synthesized with reference to FL-Peptide 22, a reagent for LabChip® series of PerkinElmer, Inc. For the kinase protein, a purified recombinant human EGFR (T790M/L858R) protein of Carna Biosciences, Inc. was purchased.
(§2) The inhibitory activity measurement was performed as follows. The compounds of the present invention were individually dissolved in dimethyl sulfoxide (DMSO), and serial dilutions of these compounds were prepared using DMSO. Subsequently, a solution containing the substrate peptide (final concentration: 250 nM), magnesium chloride (final concentration: 10 mM), manganese chloride (final concentration: 10 mM), and ATP (final concentration: 1 μM) in a buffer solution for kinase reaction (Carna Biosciences, Inc.) was mixed with the dilutions of the compounds (final concentration of DMSO upon kinase reaction: 2.5%) or DMSO (final concentration: 2.5%). EGFR (T790M/L858R) protein was further added thereto, and the mixtures were incubated at 25° C. for 120 minutes to carry out a kinase reaction. EDTA was added thereto to a final concentration of 24 mM to thereby terminate the reaction. A phosphorylated thyrosine detection solution containing europium (Eu)-labeled anti-phosphorylated tyrosine antibody PT66 (PerkinElmer, Inc.) and SureLight APC-SA (PerkinElmer, Inc.) was added to the reaction mixtures, and the mixtures were allowed to stand at room temperature for 2 hours or more. For the background, a sample to which EDTA was added before addition of EGFR (T790M/L858R) protein was incubated at 25° C. for 120 minutes, using DMSO instead of the DMSO solution of the compound. The detection solution was also added to this sample, and the mixture was allowed to stand for 2 hours or more. Finally, for all of the test samples, the amount of fluorescence at the time of irradiation of excitation light having a wavelength of 337 nm was measured at dual wavelengths of 620 nm and 665 nm by PHERAstar FS (BMG LABTECH), and a ratio of the fluorescence amounts at the two wavelengths was obtained as data.
(§3) Based on the above rates, phosphorylation inhibition rates (%) were calculated for the samples to which various concentrations of the compound solutions were added. Finally, the obtained reaction inhibition rates (%) at the respective concentrations were plotted for each compound, and the IC50 value (nM), which is a compound concentration at which phosphorylation by EGFR (T790M/L858R) is inhibited by 50%, was determined using XLfit curve-fitting software (IDBS).
The inhibitory activities of the compounds of the present invention against EGFR (d746-750/T790M) kinase activity were measured.
The materials, the measurement method, and the data analysis method were substantially the same as those shown in the above description regarding “Measurement of EGFR (T790M/L858R) Kinase Inhibitory Activity,” except that a purified recombinant human EGFR (d746-750/T790M) protein purchased from Carna Biosciences, Inc. was used as the kinase protein, and the measurement was performed with an ATP final concentration of 1.5 μM. Finally, the IC50 value (nM) of each compound with respect to EGFR (d746-750/T790M) was determined by data analysis.

The test system of test [2] is A431 expressing EGFR (WT). The experiment in a line: Growth inhibition, A431 expressing EGFR (WT). Type of test: cell-based. The settings on record: Homo sapiens, A-431, 72 h; cultured three days, CellTiter-Glo. As for the experimental part:
(§4) (1) A human […] lung cancer cell line NCI-H1975 expressing EGFR (T790M/L858R), (2) a human non-small cell lung cancer cell line HCC827 expressing EGFR (d746-750), and (3) a human epithelioid cancer cell line A431 expressing EGFR (WT) were each suspended in complete growth medium recommended by ATCC. The cell suspensions were seeded in each well of a 384-well flat microplate or a 96-well flat plate, and cultured in an incubator containing 5% carbon dioxide gas at 37° C. for one day. Each compound of the present invention was dissolved in DMSO, and serial dilutions of the test compound were prepared using DMSO (to a concentration 500 times the final concentration). The DMSO solution of the test compound or DMSO was diluted with complete growth medium, and the resulting solution was added to each well of the cell culture plate so that the final concentration of DMSO was 0.2%. Then, the cells were cultured in an incubator containing 5% carbon dioxide gas at 37° C. for three days. The number of cells was measured before the addition of the DMSO solution of the test compound, as well as after addition and culture by using a CellTiter-Glo Assay® (produced by Promega) according to a protocol recommended by Promega.
(§5) For each cell, the cell growth inhibition rates of the wells to which the test compounds at various concentrations were added were calculated by the following formula. Then, the obtained inhibition rates (%) at the respective concentrations were plotted for each test compound, and the GI50 value (nM), which is a test compound concentration at which the cell growth can be inhibited by 50%, was determined using XLfit curve-fitting software (IDBS). • Cell Growth Inhibition Rate (%)=(C−T)/(C−CO)×100 • T: Luminescence intensity of well cultured for three days after addition of the test compound solution • C: Luminescence intensity of well cultured for three days after addition of DMSO • C0: Luminescence intensity of well before addition of the test compound solution

In test [3] the target is T2, EGFR (L858R) (Homo sapiens, UniProt P00533, L858R).
T2 construct: purchased Carna Biosciences, Inc
The experiment in a line: EGFR (L858R) kinase inhibitory activity. As to conditions: ATP 4 μM. Type of test: biochemical. As for the experimental part: as §1, §2, §3
The inhibitory activities of the compounds of the present invention against EGFR (L858R) kinase activity were measured.
The materials, the measurement method, and the data analysis method were substantially the same as those shown in the above description regarding “Measurement of EGFR (T790M/L858R) Kinase Inhibitory Activity,” except that a purified recombinant human EGFR (L858R) protein purchased from Carna Biosciences, Inc. was used as the kinase protein, and the measurement was performed with ATP at a final concentration of 4 μM. Finally, the IC50 value (nM) of each compound with respect to EGFR (L858R) was determined by data analysis.

Test [4] addresses T3, EGFR (d746-750) (Homo sapiens, UniProt P00533, DEL746-750).
T3 construct: purchased Carna Biosciences, Inc
The test can be described thus: EGFR (d746-750) kinase inhibitory activity. Type of test: biochemical. As to conditions: ATP 5 μM, kinase reaction 90 minutes. The protocol:
as §1, §2, §3
The inhibitory activities of the compounds of the present invention against EGFR (d746-750) kinase activity were measured.
The materials, the measurement method, and the data analysis method were substantially the same as those shown in the above description regarding “Measurement of EGFR (T790M/L858R) Kinase Inhibitory Activity,” except that a purified recombinant human EGFR (d746-750) protein purchased from Carna Biosciences, Inc. was used as the kinase protein, the measurement was performed with ATP at a final concentration of 5 μM, and the incubation for the kinase reaction was performed for 90 minutes. Finally, the IC50 value (nM) of each compound with respect to EGFR (d746-750) was determined by data analysis.

Test [5] has as its system HCC827 expressing EGFR (d746-750). The test can be described thus: Growth inhibition, HCC827 expressing EGFR (d746-750). Format: cell-based. The settings on record: Homo sapiens, HCC827, 72 h; cultured three days, CellTiter-Glo. As for the experimental part:
as §4, §5

Test [6] has as its target T4, EGFR (T790M/L858R) (Homo sapiens, UniProt P00533, L858R/T790M).
T4 construct: purchased Carna Biosciences, Inc
The test can be described thus: EGFR (T790M/L858R) kinase inhibitory activity. Type of test: biochemical. As to conditions: ATP 1 μM, 25° C. for 120 minutes. As for the experimental part: The inhibitory activities of the compounds of the present invention against EGFR (T790M/L858R) kinase activity were measured.
as §1, §2, §3

Test [7] deals with T5, EGFR (WT) (Homo sapiens, UniProt P00533).
T5 construct: expressing a cytoplasmic domain of human EGFR (WT) with its N-terminus fused to a FLAG tag; FLAG (N); made in house; host or cells: insect Sf9 cells, baculovirus expression system
The test can be described thus: EGFR (WT) kinase inhibitory activity. Format: biochemical. As to conditions: substrate peptide 500 nM. As for the experimental part: as §1, §2, §3
The inhibitory activities of the compounds of the present invention against EGFR (WT) kinase activity were measured.
The materials, the measurement method, and the data analysis method were substantially the same as those shown in the above description regarding “Measurement of EGFR (T790M/L858R) Kinase Inhibitory Activity,” except that a kinase protein prepared by expressing a cytoplasmic domain of human EGFR (WT) with its N-terminus fused to a FLAG tag in insect Sf9 cells using a baculovirus expression system and then purifying it with anti-FLAG antibody agarose (Sigma-Aldrich) was used as the kinase protein, the final concentration of the substrate peptide was 500 nM, and the final concentration of ATP was […]. Finally, the IC50 value (nM) of each compound with respect to EGFR (WT) was determined by data analysis.

In test [8] the test system is NCI-H1975 expressing EGFR (T790M/L858R). The test can be described thus: Growth inhibition, NCI-H1975 expressing EGFR (T790M/L858R). Format: cell-based. As to conditions: Homo sapiens, NCI-H1975, 72 h; cultured three days, CellTiter-Glo. As for the experimental part:
as §4, §5

T2 sequence (P00533 25-1210 L858R): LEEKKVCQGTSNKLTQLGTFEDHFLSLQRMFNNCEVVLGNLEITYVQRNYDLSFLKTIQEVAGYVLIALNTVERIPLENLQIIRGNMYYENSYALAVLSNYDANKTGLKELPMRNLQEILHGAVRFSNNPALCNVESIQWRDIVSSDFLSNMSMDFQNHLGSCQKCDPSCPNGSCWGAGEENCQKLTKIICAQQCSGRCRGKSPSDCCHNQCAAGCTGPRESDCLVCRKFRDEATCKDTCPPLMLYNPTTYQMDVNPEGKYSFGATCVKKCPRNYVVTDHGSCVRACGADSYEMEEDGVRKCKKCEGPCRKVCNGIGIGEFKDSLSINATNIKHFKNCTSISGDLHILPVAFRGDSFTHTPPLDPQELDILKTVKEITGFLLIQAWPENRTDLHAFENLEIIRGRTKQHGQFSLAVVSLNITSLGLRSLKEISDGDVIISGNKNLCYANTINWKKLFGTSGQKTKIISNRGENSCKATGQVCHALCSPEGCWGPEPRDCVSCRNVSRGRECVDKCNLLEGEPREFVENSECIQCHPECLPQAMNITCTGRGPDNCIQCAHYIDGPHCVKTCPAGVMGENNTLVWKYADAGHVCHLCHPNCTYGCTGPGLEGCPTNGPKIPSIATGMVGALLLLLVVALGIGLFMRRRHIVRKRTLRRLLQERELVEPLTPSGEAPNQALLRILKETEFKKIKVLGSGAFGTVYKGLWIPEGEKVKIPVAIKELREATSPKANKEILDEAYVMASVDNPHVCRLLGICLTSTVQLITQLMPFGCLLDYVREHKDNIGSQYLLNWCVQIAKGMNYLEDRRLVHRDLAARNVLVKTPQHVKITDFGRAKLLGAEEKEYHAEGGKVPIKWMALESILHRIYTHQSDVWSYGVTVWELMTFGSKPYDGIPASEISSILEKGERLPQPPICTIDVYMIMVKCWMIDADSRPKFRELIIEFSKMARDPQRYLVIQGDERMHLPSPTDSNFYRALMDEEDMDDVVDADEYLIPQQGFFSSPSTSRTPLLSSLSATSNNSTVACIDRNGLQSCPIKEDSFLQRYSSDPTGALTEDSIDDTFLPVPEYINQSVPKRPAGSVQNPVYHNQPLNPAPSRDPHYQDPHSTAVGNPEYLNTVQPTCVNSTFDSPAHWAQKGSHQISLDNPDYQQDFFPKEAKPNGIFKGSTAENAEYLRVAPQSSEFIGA
T5 sequence (P00533 669-1210 limits assumed): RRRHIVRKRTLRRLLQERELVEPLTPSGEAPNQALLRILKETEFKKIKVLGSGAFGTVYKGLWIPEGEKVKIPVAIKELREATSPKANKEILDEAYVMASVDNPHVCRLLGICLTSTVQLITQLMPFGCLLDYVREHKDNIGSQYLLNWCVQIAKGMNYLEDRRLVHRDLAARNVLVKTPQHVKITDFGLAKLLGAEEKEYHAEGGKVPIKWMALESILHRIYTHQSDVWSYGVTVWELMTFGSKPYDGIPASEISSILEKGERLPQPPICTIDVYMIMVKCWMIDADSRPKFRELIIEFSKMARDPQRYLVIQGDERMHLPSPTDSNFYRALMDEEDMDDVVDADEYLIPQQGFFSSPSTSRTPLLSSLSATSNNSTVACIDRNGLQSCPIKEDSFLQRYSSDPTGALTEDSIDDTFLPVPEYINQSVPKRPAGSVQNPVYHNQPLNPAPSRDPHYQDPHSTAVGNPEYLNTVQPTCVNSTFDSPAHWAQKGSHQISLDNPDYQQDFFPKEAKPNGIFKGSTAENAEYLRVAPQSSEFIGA
T1 sequence (P00533 with tags, fused parts or gaps DEL746-750/T790M limits assumed): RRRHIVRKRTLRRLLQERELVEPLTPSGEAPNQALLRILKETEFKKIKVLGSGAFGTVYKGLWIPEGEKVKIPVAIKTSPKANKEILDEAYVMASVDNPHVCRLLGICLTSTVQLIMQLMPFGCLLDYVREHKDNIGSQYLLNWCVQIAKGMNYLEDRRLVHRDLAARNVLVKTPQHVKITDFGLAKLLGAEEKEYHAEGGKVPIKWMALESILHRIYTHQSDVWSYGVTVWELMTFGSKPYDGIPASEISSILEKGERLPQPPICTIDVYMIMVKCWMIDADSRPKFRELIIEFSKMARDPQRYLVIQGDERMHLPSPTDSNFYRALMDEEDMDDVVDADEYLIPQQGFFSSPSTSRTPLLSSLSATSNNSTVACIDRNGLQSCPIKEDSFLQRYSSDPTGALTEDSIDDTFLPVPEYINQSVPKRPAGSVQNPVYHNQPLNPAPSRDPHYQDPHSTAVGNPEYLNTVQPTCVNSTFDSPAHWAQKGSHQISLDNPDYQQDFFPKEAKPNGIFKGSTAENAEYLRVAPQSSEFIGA
T3 sequence (P00533 with tags, fused parts or gaps DEL746-750 limits assumed): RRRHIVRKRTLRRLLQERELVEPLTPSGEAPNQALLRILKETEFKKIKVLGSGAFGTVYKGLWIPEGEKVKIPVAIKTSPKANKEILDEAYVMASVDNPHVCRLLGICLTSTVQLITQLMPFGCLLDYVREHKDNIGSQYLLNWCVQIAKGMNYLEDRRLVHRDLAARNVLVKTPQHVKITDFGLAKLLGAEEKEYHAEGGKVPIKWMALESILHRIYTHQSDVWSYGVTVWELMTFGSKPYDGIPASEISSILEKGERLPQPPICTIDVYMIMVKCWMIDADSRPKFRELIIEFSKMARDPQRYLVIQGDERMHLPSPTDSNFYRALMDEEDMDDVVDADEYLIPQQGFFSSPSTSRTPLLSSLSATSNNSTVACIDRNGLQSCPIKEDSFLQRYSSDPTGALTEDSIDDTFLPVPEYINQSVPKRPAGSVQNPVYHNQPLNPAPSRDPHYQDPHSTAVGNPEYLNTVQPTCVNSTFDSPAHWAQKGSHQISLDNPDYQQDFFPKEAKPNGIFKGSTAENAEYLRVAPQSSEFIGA
T4 sequence (P00533 25-1210 T790M/L858R): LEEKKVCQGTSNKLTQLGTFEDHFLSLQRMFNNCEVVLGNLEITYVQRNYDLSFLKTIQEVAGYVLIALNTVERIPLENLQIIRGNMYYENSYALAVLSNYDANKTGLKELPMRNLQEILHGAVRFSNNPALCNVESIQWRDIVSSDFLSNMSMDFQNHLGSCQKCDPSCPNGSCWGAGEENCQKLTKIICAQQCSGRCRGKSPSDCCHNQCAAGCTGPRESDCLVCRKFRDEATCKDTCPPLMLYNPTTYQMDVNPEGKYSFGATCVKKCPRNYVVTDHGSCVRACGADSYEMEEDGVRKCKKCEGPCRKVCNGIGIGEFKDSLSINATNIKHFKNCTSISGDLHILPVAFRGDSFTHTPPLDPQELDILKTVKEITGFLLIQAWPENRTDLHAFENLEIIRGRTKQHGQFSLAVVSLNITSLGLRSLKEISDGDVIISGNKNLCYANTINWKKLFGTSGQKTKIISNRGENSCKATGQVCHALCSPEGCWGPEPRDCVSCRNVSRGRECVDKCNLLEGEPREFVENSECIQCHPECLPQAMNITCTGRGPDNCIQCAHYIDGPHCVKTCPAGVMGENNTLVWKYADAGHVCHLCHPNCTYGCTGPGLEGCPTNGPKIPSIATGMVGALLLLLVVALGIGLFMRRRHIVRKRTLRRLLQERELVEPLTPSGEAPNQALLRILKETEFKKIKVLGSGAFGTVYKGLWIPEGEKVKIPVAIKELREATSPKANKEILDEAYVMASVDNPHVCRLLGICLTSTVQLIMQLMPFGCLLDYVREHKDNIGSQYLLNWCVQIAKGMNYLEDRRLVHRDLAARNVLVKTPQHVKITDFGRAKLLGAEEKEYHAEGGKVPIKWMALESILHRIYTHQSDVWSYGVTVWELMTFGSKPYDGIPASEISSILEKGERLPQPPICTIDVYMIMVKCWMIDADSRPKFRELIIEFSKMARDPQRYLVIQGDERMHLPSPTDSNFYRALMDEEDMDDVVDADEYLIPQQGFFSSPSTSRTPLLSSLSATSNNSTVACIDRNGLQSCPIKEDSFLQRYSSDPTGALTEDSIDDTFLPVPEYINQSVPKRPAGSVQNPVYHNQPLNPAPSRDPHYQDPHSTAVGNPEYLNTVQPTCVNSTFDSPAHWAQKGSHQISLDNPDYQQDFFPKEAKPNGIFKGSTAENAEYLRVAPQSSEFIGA

Take `C=C1c2c(-c3cnc4ccccc4c3)c3c(N)ncnc3n2C[C@H]1NC(=O)/C=C/CN(CC)CC` [Example 10, (S,E)-N-(4-amino-6-methylene-5-(quinolin-3-yl)-7,8-dihydro-6H-pyrimido[5,4-b]pyrrolizin-7-yl)-4-(diethylamino)but-2-enamide]: the IC50 was 0.61 nM in test [1]; 2.6 nM in test [3]; 1.8 nM in test [4]; 1.5 nM in test [6]; 22 nM in test [7]. The GI50 in test [2] turned out to be 4400 nM; in test [5], 8.1 nM; in test [8], 310 nM.

Turning to `C=C1c2c(-c3cnc4ccccc4c3)c3c(N)ncnc3n2C[C@H]1NC(=O)/C=C/CN(C)CC` [Example 11, (S,E)-N-(4-amino-6-methylene-5-(quinolin-3-yl)-7,8-dihydro-6H-pyrimido[5,4-b]pyrrolizin-7-yl)-4-(ethyl(methyl)amino)but-2-enamide], the IC50 is 0.32 nM in test [1]; 1.4 nM in test [3]; 0.88 nM in test [4]; 0.76 nM in test [6]; 12 nM in test [7]. Also, the GI50 was determined as 3900 nM in test [2], 9.7 nM in test [5] and 260 nM in test [8].

Consider `C=C1c2c(-c3cnc4ccccc4c3)c3c(N)ncnc3n2C[C@H]1NC(=O)/C=C/CN(C)C(C)C` [Example 12, (S,E)-N-(4-amino-6-methylene-5-(quinolin-3-yl)-7,8-dihydro-6H-pyrimido[5,4-b]pyrrolizin-7-yl)-4-(isopropyl(methyl)amino)but-2-enamide], for which the IC50 worked out at 0.29 nM in test [1]; 1.2 nM in test [3]; 0.75 nM in test [4]; 0.66 nM in test [6]; 11 nM in test [7]. The GI50 came out at 3500 nM in test [2], 7.9 nM in test [5] and 240 nM in test [8].

Consider `C=CC(=O)N[C@@H]1CCn2c(c(-c3cnc4ccccc4c3)c3c(N)ncnc32)C1=C` [Example 13, (R)—N-(4-amino-6-methylene-5-(quinolin-3-yl)-6,7,8,9-tetrahydropyrimido[5,4-b]indolizin-7-yl)acrylamide], for which the half-maximal inhibitory concentration (IC50) in test [1] stood at 1.1 nM; in test [3], 2.8 nM; in test [4] it was 2.1 nM; in test [6], 2.1 nM; in test [7], 24 nM. The concentration for 50% growth inhibition (GI50) in test [2] came out at 1200 nM; in test [5], 13 nM; in test [8] it was 150 nM.

As to `C=CC(=O)N[C@H]1C=C(C)c2c(-c3cnc4ccccc4c3)c3c(N)ncnc3n2C1` [Example 14, (S)—N-(4-amino-6-methyl-5-(quinolin-3-yl)-8,9-dihydropyrimido[5,4-b]indolizin-8-yl)acrylamide], the IC50 was below 0.5 nM in test [1]; 0.32 nM in test [3]; 0.19 nM in test [4]; 0.24 nM in test [6]; 2.9 nM in test [7]. For the same compound, the values for the GI50 in test [2], in test [5] and in test [8] were 1900 nM, 2.5 nM and 22 nM, respectively.

Turning to `C=CC(=O)N[C@H]1CC(=C)c2c(-c3cnc4ccccc4c3)c3c(N)ncnc3n2C1` [Example 15, (S)—N-(4-amino-6-methylene-5-(quinolin-3-yl)-6,7,8,9-tetrahydropyrimido[5,4-b]indolizin-8-yl)acrylamide], the IC50 in test [1] stood at 1.2 nM; in test [3] it was 1.3 nM; in test [4] it was 1.4 nM; in test [6] it was 1.6 nM; in test [7] it was 7.9 nM. Further, the GI50 in test [2] worked out at 2000 nM; in test [5], 22 nM; in test [8], 85 nM.

Take `C=CC(=O)N[C@@H]1C=C(C)c2c(-c3cnc4ccccc4c3)c3c(N)ncnc3n2C1` [Example 16, (R)—N-(4-amino-6-methyl-5-(quinolin-3-yl)-8,9-dihydropyrimido[5,4-b]indolizin-8-yl)acrylamide]: the IC50 in test [1] was determined as 3 nM; in test [3], 39 nM; in test [4], 15 nM; in test [6], 11 nM; in test [7], 480 nM. The values for the GI50 in test [2], in test [5] and in test [8] were above 10000 nM, 27 nM and 600 nM, respectively.
